Measured values published in patent US9320271B2, “Microbial composition” (Rohm and Haas Company, priority 2011, dated 2016).
Values joined by “and” are separate entries in the source; they are usually repeats but may differ in a detail not shown here. Equal entries are not always repeated.

Assays:
[1] = system: Escherichia coli (E. coli—ATCC #10536); test: Synergy test: high resolution MBC microtiter plate assay, phosphate buffer containing 35% dipropylene glycol, 15 seconds contact; assay type: cell-based; settings: E. coli 10536; for MBC of the component acting alone (QA / QB; Qa or Qb where the other component is 0): complete kill in 15 seconds
[2] = system: Staphylococcus aureus (10788 strain); test: 15 second contact kill test / antimicrobial efficacy of actives against S. aureus in water; assay type: cell-based; settings: 0.1% 3 isopropyl 6 methyl catechol (IPMC) alone
Method: Selected materials were also tested against a representative Grant positive Staphylococcus aureus. An overnight culture of Staphylococcus aureus (10788 strain) was inoculated onto a […] Soy Agar (TSA) plate and grown for ca. 18 hrs at 37° C. The culture S. aureus was washed from the plate using sterile saline (0.85% NaCl) solution and a sterile spreader and suspended in 50 ml saline. This suspension was separated into equal volumes and centrifuged at 4000 rpm for 15 minutes. […] Here, OD620 indicates the absorbance of a sample in a cuvette of 1.0 cm path length at a wavelength of 620 nm. This bacterial stock was used for assaying against antimicrobial actives (in triplicate). The following assay describes the testing of 8 materials using 6 dilutions across half of a 96-well micro titre plate (MTP). Using this approach it is possible to assay 16 actives (without replicates) with one full dilution plate, replicating this set up in two halves of the plate columns, 1-6 and 7-12. 1M solutions of the test actives were prepared in dimethylsulphoxide (DMSO). […] Aliquots (270 μl) of the materials at 1.11 times the final concentration were dispensed into the wells of the MTP along one column (A1-H1). This MTP was labelled as the “Screening plate”. In another MTP, labelled as the “Dilution plate”, […] of D/E neutralising solution from DIFCO Composition was added to column 1. The composition of the neutralising solution was as follows: pancreatic digest of casein, 5.0 g/L; […] Dextrose, 10 g/L, sodium thioglycollate, 1.0 g/L, sodium thiosulphate, 6.0 g/L; sodium bisulphite, 2.5 g/L; […] […] From the colony number in this segment, NMBS is calculated by the formula: NMBS=log {Ncol·10^DF·100/3} Here, Ncol is the colony count, and DF is the dilution factor taken from the MTP-well corresponding to the TSA plate segment (i.e. DF may range from 1 for the quench, to 6 for the highest dilution). […] Here, OD620 indicates the absorbance of a sample in a cuvette of 1.0 cm path length at a wavelength, of 620 nm. […]

Cc1ccc(C(C)C)c(O)c1O [3-isopropyl-6-methylbenzene-1,2-diol]
SI (Synergy Index) ([1]; at Qa and Qb, less than one = synergy): 1.00 | MBC of the component acting alone (QA / QB; Qa or Qb where the other component is 0) [1]: 1.0 weight % and 0.8 weight % | MBC of the component acting alone (QA / QB; Qa or Qb where the other component is 0) ([1]; listed as 3-isopronyl-6-methylbenzene-1,2-diol): 0.8 weight % | S. aureus 6538 Log Reduction [2]: −0.07
